Laboratory results taken from ChEMBL document CHEMBL5465560, “Selectivity Literature for EUbOPEN Chemogenomic Library” (2024).

Legend:
[1] = molecular target: T1, Serine/threonine-protein kinase Sgk1 (Homo sapiens) (UniProt O00141); assay: Selectivity interaction (KinomeScan (DiscoverX)) EUB0000229b SGK1; conditions: at 10 µM
T1 sequence (whole entry): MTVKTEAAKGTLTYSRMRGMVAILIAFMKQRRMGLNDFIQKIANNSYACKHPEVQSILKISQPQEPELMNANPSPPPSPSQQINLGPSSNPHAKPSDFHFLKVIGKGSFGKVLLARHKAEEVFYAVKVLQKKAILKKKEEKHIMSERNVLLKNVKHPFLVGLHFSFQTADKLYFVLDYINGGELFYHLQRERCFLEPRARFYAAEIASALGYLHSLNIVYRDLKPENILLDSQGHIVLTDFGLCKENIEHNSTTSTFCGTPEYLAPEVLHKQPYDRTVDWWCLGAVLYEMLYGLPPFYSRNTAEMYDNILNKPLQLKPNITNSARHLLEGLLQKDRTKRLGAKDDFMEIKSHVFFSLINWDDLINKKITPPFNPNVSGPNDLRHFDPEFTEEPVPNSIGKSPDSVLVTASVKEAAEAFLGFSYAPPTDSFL

[2] = test system: Epidermal growth factor receptor (Homo sapiens), P00533 [UNDEFINED MUTATION]; assay: Selectivity interaction (KinomeScan (DiscoverX)) EUB0000045b EGFR; conditions: at 10 µM
[3] = molecular target: Leukocyte tyrosine kinase receptor (Homo sapiens, UniProt P29376); assay: Selectivity interaction (KinomeScan (DiscoverX)) EUB0000695a LTK; conditions: at 100 nM
[4] = molecular target: Ribosomal protein S6 kinase alpha-4 (Homo sapiens) (UniProt O75676); assay: Selectivity interaction (KinomeScan (DiscoverX)) EUB0000695a RPS6KA4; conditions: at 100 nM
[5] = molecular target: Homeodomain-interacting protein kinase 2 (Homo sapiens, UniProt Q9H2X6); assay: Selectivity interaction (KinomeScan (DiscoverX)) EUB0001079a HIPK2; conditions: at 1 µM
[6] = molecular target: Serine/threonine-protein kinase Nek4 (Homo sapiens) (UniProt P51957); assay: Selectivity interaction (KinomeScan (DiscoverX)) EUB0001079a NEK4; conditions: at 1 µM
[7] = molecular target: Serine/threonine-protein kinase pim-3 (Homo sapiens) (UniProt Q86V86); assay: Selectivity interaction (Kinase panel (Z-LYTE Assay)) EUB0001632a PIM3; conditions: at 10 µM
[8] = molecular target: Phosphatidylinositol 4,5-bisphosphate 3-kinase catalytic subunit alpha isoform (Homo sapiens) (UniProt P42336); assay: Selectivity interaction (Adapta Assay) EUB0001632a PIK3CA; conditions: at 10 µM
[9] = molecular target: Atypical kinase COQ8A, mitochondrial (Homo sapiens, UniProt Q8NI60); assay: Selectivity interaction (LanthaScreen Eu Kinase Binding Assay) EUB0001632a ADCK3; conditions: at 10 µM
[10] = molecular target: STE20-like serine/threonine-protein kinase (Homo sapiens, UniProt Q9H2G2); assay: Selectivity interaction (KinomeScan (DiscoverX)) EUB0001619a SLK; conditions: at 1 µM
[11] = molecular target: Tyrosine-protein kinase SYK (Homo sapiens, UniProt P43405); assay: Selectivity interaction (KinomeScan (DiscoverX)) EUB0001619a SYK; conditions: at 1 µM
[12] = molecular target: BDNF/NT-3 growth factors receptor (Homo sapiens) (UniProt Q16620); assay: Selectivity interaction (KinaseProfiler screening (Millipore)) EUB0000601a NTRK2; conditions: at 3 µM
[13] = molecular target: Tyrosine-protein kinase Fgr (Homo sapiens) (UniProt P09769); assay: Selectivity interaction (SelectScreen profiling (Invitrogen)) EUB0000607a FGR; conditions: at 2 µM
[14] = molecular target: Ribosomal protein S6 kinase alpha-3 (Homo sapiens, UniProt P51812); assay: Selectivity interaction (ActivX KiNativ screen (kinase selectivity in THP-1 cell lysates)) EUB0000639a RPS6KA3; format: subcellular; conditions: lysate, at 5 µM
[15] = molecular target: T2, Serine/threonine-protein kinase D2 (Homo sapiens) (UniProt Q9BZL6); assay: Selectivity interaction (KinomeScan (DiscoverX)) EUB0000655a PRKD2; conditions: at 10 µM
T2 sequence (whole entry): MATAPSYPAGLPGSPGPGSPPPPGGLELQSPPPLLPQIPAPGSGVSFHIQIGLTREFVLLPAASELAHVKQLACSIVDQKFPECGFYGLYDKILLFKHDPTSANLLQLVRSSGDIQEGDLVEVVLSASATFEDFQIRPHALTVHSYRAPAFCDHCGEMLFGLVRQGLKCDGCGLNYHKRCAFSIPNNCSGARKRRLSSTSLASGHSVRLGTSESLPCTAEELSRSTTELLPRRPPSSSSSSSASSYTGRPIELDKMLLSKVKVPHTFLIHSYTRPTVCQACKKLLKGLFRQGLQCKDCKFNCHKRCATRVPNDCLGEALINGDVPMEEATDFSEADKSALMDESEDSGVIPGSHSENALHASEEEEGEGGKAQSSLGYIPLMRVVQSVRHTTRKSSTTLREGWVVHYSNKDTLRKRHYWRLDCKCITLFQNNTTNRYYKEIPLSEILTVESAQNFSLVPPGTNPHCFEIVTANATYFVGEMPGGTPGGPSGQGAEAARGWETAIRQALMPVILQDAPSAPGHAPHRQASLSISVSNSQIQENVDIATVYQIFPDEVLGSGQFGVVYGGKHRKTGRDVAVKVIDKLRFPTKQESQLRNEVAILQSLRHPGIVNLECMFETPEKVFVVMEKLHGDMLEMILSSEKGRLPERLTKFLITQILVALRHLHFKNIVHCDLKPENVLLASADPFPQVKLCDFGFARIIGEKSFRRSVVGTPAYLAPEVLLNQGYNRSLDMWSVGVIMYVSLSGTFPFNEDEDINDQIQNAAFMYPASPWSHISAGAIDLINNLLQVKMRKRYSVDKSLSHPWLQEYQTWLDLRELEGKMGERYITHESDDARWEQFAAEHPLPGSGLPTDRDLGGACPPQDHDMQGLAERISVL

[16] = molecular target: Ephrin type-A receptor 7 (Homo sapiens) (UniProt Q15375); assay: Selectivity interaction (KinomeScan (DiscoverX)) EUB0000655a EPHA7; conditions: at 10 µM
[17] = molecular target: Proto-oncogene tyrosine-protein kinase ROS (Homo sapiens) (UniProt P08922); conditions: at 10 µM
[18] = molecular target: Casein kinase I isoform gamma-1 (Homo sapiens) (UniProt Q9HCP0); assay: Selectivity interaction (KinomeScan (DiscoverX)) EUB0000092b CSNK1G1; conditions: at 10 µM

Phosphatidylinositol 4,5-bisphosphate 3-kinase catalytic subunit alpha isoform (Homo sapiens), sequence (P42336 whole entry, canonical isoform): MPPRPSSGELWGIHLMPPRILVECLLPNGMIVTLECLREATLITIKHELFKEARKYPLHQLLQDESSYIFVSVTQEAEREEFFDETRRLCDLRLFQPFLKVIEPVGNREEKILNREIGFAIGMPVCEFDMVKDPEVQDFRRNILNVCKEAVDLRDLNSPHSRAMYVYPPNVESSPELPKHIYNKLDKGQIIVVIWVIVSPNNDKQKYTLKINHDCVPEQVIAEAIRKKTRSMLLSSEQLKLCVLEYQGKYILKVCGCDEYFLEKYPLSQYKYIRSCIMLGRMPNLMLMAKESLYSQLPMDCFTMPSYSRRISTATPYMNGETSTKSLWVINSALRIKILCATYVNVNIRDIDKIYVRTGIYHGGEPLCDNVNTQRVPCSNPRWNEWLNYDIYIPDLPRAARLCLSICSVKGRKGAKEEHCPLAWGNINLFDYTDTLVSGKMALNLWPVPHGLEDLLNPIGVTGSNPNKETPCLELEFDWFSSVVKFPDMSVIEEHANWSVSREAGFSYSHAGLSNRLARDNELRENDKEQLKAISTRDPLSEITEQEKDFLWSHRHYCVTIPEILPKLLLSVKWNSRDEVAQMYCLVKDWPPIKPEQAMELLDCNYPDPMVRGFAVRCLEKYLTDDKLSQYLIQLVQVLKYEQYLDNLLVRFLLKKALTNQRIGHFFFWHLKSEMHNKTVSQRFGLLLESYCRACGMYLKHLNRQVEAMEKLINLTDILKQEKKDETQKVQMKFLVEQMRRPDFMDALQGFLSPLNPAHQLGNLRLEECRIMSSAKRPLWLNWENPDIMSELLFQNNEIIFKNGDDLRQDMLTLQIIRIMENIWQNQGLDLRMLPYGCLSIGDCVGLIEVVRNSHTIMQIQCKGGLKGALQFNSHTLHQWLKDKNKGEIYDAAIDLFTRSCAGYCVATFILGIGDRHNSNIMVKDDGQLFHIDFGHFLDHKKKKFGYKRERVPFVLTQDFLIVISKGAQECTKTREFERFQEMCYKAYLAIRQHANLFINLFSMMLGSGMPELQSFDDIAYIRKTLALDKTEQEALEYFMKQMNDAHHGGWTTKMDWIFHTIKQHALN
Homeodomain-interacting protein kinase 2, sequence (Q9H2X6 whole entry, looked up): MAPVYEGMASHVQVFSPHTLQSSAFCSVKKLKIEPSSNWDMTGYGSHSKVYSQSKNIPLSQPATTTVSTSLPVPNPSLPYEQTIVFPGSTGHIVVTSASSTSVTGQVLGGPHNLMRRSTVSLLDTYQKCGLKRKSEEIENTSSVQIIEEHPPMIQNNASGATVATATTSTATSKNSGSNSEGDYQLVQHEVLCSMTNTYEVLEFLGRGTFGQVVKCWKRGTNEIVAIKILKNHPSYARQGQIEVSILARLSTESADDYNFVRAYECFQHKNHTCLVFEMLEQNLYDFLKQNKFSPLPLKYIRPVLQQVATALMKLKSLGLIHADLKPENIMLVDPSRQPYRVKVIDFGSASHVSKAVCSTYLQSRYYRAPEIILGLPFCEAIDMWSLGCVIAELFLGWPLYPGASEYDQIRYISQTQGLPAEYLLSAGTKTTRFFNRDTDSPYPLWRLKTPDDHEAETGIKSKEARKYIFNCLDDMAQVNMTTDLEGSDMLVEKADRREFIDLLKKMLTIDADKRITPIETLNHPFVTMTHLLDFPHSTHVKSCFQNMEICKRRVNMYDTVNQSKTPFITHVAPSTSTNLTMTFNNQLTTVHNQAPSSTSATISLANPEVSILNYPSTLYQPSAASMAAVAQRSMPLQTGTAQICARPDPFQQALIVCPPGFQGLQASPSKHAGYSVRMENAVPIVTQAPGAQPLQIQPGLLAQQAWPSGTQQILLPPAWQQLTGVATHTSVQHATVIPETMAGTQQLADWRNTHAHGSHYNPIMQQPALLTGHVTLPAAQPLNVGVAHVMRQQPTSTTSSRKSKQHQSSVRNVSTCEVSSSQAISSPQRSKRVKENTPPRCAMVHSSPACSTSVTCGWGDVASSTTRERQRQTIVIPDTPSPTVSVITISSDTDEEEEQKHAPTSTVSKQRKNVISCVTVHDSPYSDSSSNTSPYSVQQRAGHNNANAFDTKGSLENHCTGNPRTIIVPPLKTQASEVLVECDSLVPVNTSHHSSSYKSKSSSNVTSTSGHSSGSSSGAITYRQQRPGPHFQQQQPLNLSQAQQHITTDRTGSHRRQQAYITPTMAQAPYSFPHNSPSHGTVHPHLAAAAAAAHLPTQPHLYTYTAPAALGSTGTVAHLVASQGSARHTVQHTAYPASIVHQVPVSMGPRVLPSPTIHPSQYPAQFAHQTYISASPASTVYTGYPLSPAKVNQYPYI
Serine/threonine-protein kinase Nek4 (Homo sapiens), sequence (P51957 whole entry, looked up): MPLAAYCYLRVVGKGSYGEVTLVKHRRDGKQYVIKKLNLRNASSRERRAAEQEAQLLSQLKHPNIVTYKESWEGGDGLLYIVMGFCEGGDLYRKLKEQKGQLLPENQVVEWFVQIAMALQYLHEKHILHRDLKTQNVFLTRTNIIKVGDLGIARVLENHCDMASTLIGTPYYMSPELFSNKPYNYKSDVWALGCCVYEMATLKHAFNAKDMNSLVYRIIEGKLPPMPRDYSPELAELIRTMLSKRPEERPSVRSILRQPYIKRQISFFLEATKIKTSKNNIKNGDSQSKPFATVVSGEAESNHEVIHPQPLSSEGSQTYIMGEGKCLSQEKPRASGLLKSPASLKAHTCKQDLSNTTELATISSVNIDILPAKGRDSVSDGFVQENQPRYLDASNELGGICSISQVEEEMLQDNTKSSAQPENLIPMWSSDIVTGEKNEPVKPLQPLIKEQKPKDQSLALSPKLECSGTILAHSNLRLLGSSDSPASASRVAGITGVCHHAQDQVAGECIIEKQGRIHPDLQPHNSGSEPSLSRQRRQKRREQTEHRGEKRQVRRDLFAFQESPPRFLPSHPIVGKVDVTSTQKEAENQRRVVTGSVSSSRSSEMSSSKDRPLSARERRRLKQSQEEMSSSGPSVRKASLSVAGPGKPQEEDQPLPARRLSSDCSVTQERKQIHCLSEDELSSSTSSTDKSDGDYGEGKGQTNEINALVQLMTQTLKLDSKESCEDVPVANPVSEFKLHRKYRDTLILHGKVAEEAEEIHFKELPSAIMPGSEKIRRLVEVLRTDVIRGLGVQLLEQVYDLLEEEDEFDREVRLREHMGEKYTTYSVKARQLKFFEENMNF
Atypical kinase COQ8A, mitochondrial, sequence (Q8NI60 163-647 limits assumed): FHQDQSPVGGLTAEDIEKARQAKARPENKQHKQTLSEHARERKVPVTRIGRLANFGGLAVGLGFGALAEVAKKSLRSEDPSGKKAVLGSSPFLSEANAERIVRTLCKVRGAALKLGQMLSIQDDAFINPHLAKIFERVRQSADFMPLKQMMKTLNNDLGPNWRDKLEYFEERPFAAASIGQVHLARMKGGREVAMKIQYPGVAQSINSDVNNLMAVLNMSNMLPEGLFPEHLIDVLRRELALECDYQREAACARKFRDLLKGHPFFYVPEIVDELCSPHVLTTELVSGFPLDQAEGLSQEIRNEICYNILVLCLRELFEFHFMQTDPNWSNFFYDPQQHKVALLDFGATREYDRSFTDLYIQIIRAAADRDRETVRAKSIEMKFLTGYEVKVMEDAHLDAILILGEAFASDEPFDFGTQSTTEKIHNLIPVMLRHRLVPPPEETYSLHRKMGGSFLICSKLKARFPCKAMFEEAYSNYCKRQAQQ
Ephrin type-A receptor 7 (Homo sapiens), sequence (Q15375 28-998 limits assumed): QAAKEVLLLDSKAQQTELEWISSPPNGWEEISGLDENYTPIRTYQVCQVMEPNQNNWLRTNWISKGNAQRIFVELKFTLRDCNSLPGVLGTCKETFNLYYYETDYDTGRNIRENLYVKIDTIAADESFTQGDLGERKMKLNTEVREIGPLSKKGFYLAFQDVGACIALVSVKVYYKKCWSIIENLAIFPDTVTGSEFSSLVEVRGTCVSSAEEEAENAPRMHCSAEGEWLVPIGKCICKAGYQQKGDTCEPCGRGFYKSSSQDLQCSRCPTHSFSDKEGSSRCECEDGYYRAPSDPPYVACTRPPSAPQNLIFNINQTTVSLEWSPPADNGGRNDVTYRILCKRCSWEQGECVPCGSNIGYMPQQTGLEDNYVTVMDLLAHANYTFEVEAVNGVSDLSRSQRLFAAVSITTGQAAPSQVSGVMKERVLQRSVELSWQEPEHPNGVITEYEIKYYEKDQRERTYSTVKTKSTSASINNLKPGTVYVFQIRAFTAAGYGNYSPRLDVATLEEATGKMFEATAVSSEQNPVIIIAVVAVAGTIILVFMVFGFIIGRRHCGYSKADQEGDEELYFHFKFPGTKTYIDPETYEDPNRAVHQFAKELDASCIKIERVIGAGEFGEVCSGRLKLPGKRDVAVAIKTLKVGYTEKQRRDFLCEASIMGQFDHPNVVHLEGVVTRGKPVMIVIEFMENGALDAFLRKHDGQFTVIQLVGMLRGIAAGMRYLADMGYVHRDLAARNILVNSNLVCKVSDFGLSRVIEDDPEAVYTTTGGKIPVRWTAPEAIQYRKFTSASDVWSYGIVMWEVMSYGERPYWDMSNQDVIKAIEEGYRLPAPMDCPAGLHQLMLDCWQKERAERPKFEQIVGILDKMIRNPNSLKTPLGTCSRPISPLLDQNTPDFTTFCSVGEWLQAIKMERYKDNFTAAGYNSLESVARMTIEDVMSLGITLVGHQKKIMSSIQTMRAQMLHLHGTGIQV

COc1cc(N(C)c2ccnc3ccc(C(F)(F)F)cc23)cc(OC)c1OC
% binding [1]: 97%

C=CC(=O)Nc1cc(-n2c(=O)ccc3cnc4ccc(-c5ccc(NS(C)(=O)=O)cc5)cc4c32)ccc1C
% of control [2]: 62%

Cc1cc(F)c(C(=O)Nc2cccc(-c3nncn3C(C)C)n2)cc1-n1cnc(C2CC2)c1
% of control [3]: 93%
% of control [4]: 100%

Nc1cnc(N2CCc3cc(S(=O)(=O)Nc4c(F)cc(Cl)cc4F)cc(N4CCCC4=O)c32)nc1 [TP-020n]
% of control [5]: 100%
% of control [6]: 97%

Cn1cc(-n2cnc3c(NCc4nc5cc(Cl)c(Cl)cc5[nH]4)nc(N4CCOCC4)nc32)cn1
% of control [7]: -7.71%
% of inhibition [8]: 22.8%
% of inhibition [9]: 8.48%

N#Cc1cccc(-c2c[nH]c3ncnc(N4CCOCC4)c23)c1
% of control [10]: 25%
% of control [11]: 100%

CCc1cc(Nc2nccc(-c3c(-c4ccc(OC)c(C(=O)Nc5c(F)cccc5F)c4)nc4ccccn34)n2)c(OC)cc1N1CCC(N2CCN(S(C)(=O)=O)CC2)CC1
% of inhibition [12]: 47%

CNC(=O)Nc1ccc(-c2nc(N3CC4CCC(C3)O4)c3cnn(C4CCC5(CC4)OCCO5)c3n2)cc1
% of inhibition [13]: 1%

CC[C@@H]1[C@H](F)C(=O)N[C@@H]1COc1nccc2cc(C(N)=O)c(OC)cc12 [ZIMLOVISERTIB]
% of inhibition [14]: 2.9%

CN(C)CCOc1ccc(-c2nc(-c3ccncc3)c(-c3ccc4c(c3)CC/C4=N\O)[nH]2)cc1
% of control [15]: 80%
% of control [16]: 100%

CCN(CC)CCCCNc1ncc2cc(-c3cc(OC)cc(OC)c3)c(NC(=O)NC(C)(C)C)nc2n1
% of control [17]: 100%

CCC(=O)N1CCN(c2ccc(-n3c(=O)ccc4cnc5ccc(-c6cnc7ccccc7c6)cc5c43)cc2C(F)(F)F)CC1
% of control [18]: 100%
